Results on two compounds are retold here after patent US20220267288A1, “CARDIAC THERAPEUTIC” (priority 2019, published 2022).

Data set [1] deals with hiPSC-CM. As to the kind of experiment: Extracellular field potential duration (FPD), multi electrode array. Type of data set: cell-based, human. The following applies: MEA, 0-10 μM. The method, then: Electrophysiological perturbations of hiPSC-CM were measured using multi electrode array (MEA) recording system (Multichannel Systems, Reutlingen, Germany). […] FPD measurements were normalized (corrected FPD [cFPD]) to the beating rate of the contracting areas with the Bazzet correction formula: cFPD=FPD/√(RR interval) as described previously^3. One-phase decay algorithm was used to plot corrected FPD curves.

Data set [2] is described as follows: In vivo pharmacokinetic studies in dogs. The following applies: for acute toxicity and fatality in vivo: PK study. The method, then: All experiments were approved by the Animal Research Committee for Animal Experimentation of Toho University (No. 12-52-151) and performed in accordance with the Guidelines for the Care and Use of Laboratory Animals of Toho University. […] Plasma samples were stored at −80° C. and thawed in ice before use.
Ice cold NDEA internal standard (IS) solution was used for protein precipitation at a plasma:IS ratio of 1:3. The mixture was vortex-mixed for 1 min, followed by centrifugation at 14,000 g at 4° C. for 15 min. The supernatant was then transferred into a vial for LC/MS/MS analysis.
The LC/MS/MS system consisted of Infinity ultra-high-pressure liquid chromatography (UHPLC) system (Agilent Technologies Inc., Santa Clara, Calif.) with the AB SCIEX QTRAP® 5500 tandem mass spectrometry (MS/MS) system (AB SCIEX, Framingham, Mass.). MultiQuant software version 1.4.0.18067 (Applied Biosystems) was used to perform all chromatographic peak integration.
Chromatographic separation was performed using ACQUITY UPLC BEH C18 column, 1.7 μm, 2.1×50 mm (Waters, Milford, Mass.), with a gradient elution programme. The mobile phases were 0.2% acetic acid in 5 mM ammonium acetate in water (A) and 0.2% acetic acid in ACN (B). The elution conditions were linear gradient 30-95% B (0-1.60 min), isocratic at 95% B (1.61-1.99 min), and isocratic at 30% B (2.00-2.50 min). Multiple reaction monitoring (MRM) transitions were optimized for NDEA (internal standard, IS), dronedarone and poyendarone.
Individual pharmacokinetic parameters were estimated using NCA for IV bolus data (Model 201), using WinNonlin® (Pharsight, USA). […] Data points included in the calculation of Lambda Z (Az) were first determined by WinNonlin®, and then visually assessed and modified accordingly. Other parameters calculated include apparent total plasma clearance (CL), apparent volume of distribution based on terminal phase (Vz), apparent elimination half-life (T1/2), apparent volume at steady state (Vss), mean residence time (MRT) and MRT extrapolated to infinity (MRTinf). […]

Data set [3] has as its target T1, CYP3A4 (Homo sapiens, UniProt P08684).
T1 construct: purchased BD Gentest (Woburn, Mass.)
As to the kind of experiment: Metabolic stability (substrate depletion) with CYP3A4. The following applies: for elimination rate constant k by CYP3A4 / half-life at 1 μM: 1 μM substrate, CYP3A4 10 pmol/mL; for CLint (CYP3A4): PBPK parameter, in vitro data obtained; for half-life at 1 μM: human, CYP3A4 enzyme, pH 7.4, read-out: T1/2 by CYP3A4; for Intrinsic clearance, CLint CYP3A4: substrate depletion. Type of data set: in vitro ADME. The method, then:
(§1) The metabolic stability experiments were performed to derive intrinsic clearance (CLint) values via the substrate depletion method. […] NADPH A was subsequently added to initiate the reaction. […] The reaction mixtures were incubated at 37° C. with gentle agitation. At the respective time points (0-60 min), 80 μL of the reaction mixture was quenched using an equal volume of ice-cold ACN with 1 μM tamoxifen as internal standard (IS). The samples were then centrifuged at 3220 g at 4° C. for 30 min before transferring the supernatant to a 96-well plate for liquid chromatography-tandem mass spectrometry (LC-MS/MS) analysis.
(§2) The mean of triplicate peak area ratios for each compound was normalized to that of the same compound at the 0 min time point to obtain the percentage of substrate remaining at each time point. This was plotted against incubation time for each compound and the data was then fitted to a one-phase decay model using GraphPad Prism software (version 8.02; GraphPad Inc., San Diego, Calif.) to obtain an estimation for the elimination rate constant (k). CLint was then calculated based on equation 3:
(§3) In equation 3, k=elimination rate constant (min^−1); V=volume of incubation mixture (mL); P=amount of protein in mixture (mg).

Data set [4] in a line: Metabolic stability (substrate depletion) with HLM. Conditions: for elimination rate constant k by HLM / half-life at 1 μM: 1 μM substrate, HLM 0.5 mg/mL; for half-life at 1 μM / microsomal CLint at 1 μM: human, pooled human liver microsomes, pH 7.4; for half-life at 1 μM: read-out: T1/2 by HLM; for microsomal CLint at 1 μM: substrate depletion, read-out: Intrinsic clearance, CLint HLM. In kind it is in vitro ADME, human. As for the experimental part:
as §1, §2, §3

Data set [5] in a line: Parallel artificial membrane permeability assay (PAMPA). Type of data set: in vitro ADME. The following applies: read-out: Effective permeability. As for the experimental part: The aqueous solubility of each compound was measured in universal buffer (pH 7.4) using MultiscreenHTS PCF Filter Plates. The effective permeability of each compound was measured using the parallel artificial membrane permeability assay (PAMPA).
(In general: The PAMPA barrier holds no transporters, so it reflects passive diffusion.)

The target in data set [6] is T1, CYP3A4. Conditions: literature value, similar experimental set-up; cited from earlier work.
Data set [7] has as its target T2, CYP2J2 (Homo sapiens, UniProt P51589).
T2 sequence (P51589 1-502): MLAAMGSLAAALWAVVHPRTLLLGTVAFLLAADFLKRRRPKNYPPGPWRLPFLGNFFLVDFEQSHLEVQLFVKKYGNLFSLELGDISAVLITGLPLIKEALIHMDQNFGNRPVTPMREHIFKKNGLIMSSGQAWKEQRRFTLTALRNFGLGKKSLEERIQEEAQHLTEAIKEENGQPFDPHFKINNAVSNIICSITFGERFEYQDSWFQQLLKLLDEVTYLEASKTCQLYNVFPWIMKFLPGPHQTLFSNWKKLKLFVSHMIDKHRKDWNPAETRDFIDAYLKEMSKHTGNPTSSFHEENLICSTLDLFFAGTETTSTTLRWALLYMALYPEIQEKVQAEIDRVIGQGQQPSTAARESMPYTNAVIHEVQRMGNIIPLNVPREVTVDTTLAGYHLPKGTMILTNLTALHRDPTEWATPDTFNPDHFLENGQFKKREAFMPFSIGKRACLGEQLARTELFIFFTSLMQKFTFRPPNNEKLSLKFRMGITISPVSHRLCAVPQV
As to the kind of experiment: Inhibition of CYP2J2-mediated astemizole metabolism in hiPSC-CM. In kind it is cell-based. Further details: endogenous in cells; host or cells: hiPSC-CM (from human foreskin fibroblasts). Conditions: 2 μM drug co-incubated with 1 μM astemizole.
Procedure: HiPSC-CM were seeded at a density 100,000 cell/well in a 12-well plate and differentiated for 30 days. […] The cells were then washed with 1×PBS twice and dislodged using Accutase® cell detachment solution. The cells were then pelleted at 2000 g for 10 min at 4° C. The supernatant was discarded and the pellets were resuspended in 100 μL of ice-cold ACN with 0.1 μM buspirone as an internal standard. The cells were sonicated for 15 min on ice to bring about complete cell lysis. The lysate was centrifuged at 10,000×g for 15 min at 4° C. The supernatant was collected and analyzed using LC/MS/MS.
The LC/MS/MS system consisted of an Agilent 1290 Infinity ultra-high pressure liquid chromatography (UPLC) system (Agilent Technologies Inc., Santa Clara, Calif.) interfaced with the AB SCIEX QTRAP® 5500 tandem mass spectrometry (MS/MS) system (AB SCIEX, Framingham, Mass.). The LC/MS/MS system was controlled by Analyst 1.4.2 software (Applied Biosystems) which performed all chromatographic peak integration. The ACQUITY UPLC BEH C18 column, 1.7 μM, 2.1×50 mm (Waters, Milford, Mass.), was used to achieve chromatographic separation. The temperatures of the column and samples were maintained at 45° C. and 4° C. respectively. The mobile phases were 0.2% acetic acid in 5 mM ammonium acetate (solvent A) and 0.2% acetic acid in ACN (solvent B). They were delivered at a flow rate of 0.6 mL/min. […]

Marks after values point to notes of the source that are not given here.

T1 sequence (P08684 whole entry): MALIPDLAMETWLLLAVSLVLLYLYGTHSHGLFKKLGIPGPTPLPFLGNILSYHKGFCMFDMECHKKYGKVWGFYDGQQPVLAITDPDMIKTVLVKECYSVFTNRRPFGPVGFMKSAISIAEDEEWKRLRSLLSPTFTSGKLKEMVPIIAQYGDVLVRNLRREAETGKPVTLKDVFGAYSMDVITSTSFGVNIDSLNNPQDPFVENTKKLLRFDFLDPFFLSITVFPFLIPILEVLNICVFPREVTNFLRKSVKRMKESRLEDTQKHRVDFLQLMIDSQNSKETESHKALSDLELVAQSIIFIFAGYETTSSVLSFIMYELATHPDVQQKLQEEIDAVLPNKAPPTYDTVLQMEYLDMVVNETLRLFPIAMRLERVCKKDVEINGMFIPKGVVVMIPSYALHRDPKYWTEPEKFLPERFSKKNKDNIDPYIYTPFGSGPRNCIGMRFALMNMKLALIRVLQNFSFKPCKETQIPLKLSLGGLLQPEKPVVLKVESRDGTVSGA

For `CCCCc1oc2ccc(NS(C)(=O)=O)cc2c1C(=O)c1ccc(OCCCN(CCCC)CCCC)cc1.Cl` [Dronedarone], the “effect on extracellular field potential duration (FPD)” value in data set [1] is on record as “Dose-dependent increase in the FPD”. The “acute toxicity and fatality in vivo” value in data set [2] was “No acute toxicity nor fatality”. In data set [3], the “elimination rate constant k by CYP3A4” value came out at 0.04144 min⁻¹; the “CLint (CYP3A4)” value is reported as 114.739* μL/min/mg microsomal protein; the half-life at 1 μM came to 16.7 min; the “Intrinsic clearance, CLint CYP3A4” value stood at 8.29 µL/min/pmol. In data set [3] (listed as dronedarone), the “Intrinsic clearance, CLint CYP3A4” value stood at 8.288 µL/min/pmol. In data set [4], the “elimination rate constant k by HLM” value came to 0.06446 min⁻¹, the half-life at 1 μM came to 10.8 min and the microsomal CLint at 1 μM stood at 129 µL/min/mg. Also, the Papp in data set [5] was 3.46 ± 0.5 ×10⁻⁶ cm/s. In addition, the “CLint CYP3A4 reported by Hong et al” value in data set [6] was 6.442 µL/min/pmol. For the same compound, the “inhibition of CYP2J2 in hiPSC-CM” value in data set [7] (24 h) worked out at 98%.

In the case of `Cl.[2H]c1c(NS(C)(=O)=O)c([2H])c2c(C(=O)c3ccc(OCCCN(CCCC)CCCC)cc3)c(CCCC)oc2c1[2H]` [Poyendarone, Methanesulfonamide, N-(2-butyl-3-(4-(3-(dibutylamino)propoxy)benzoyl)-1-benzo(4,6,7-d3)-furan-5-yl)hydrochloride], the “effect on extracellular field potential duration (FPD)” value in data set [1] was “Dose-dependent increase in the FPD”. Besides, the “plasma disposition profile, clearance and volume of distribution compared between poyendarone and dronedarone” value in data set [2] (3.0 mg/kg IV bolus, 3 mg/kg) is given as “comparable”. The “acute toxicity and fatality in vivo” value in data set [2] was “No acute toxicity nor fatality”. In data set [3], the “elimination rate constant k by CYP3A4” value was 0.0918 min⁻¹; the “CLint (CYP3A4)” value was 115.2016* μL/min/mg microsomal protein; the half-life at 1 μM worked out at 7.55 min; the “Intrinsic clearance, CLint CYP3A4” value worked out at 9.18 µL/min/pmol. In data set [4], the “elimination rate constant k by HLM” value is 0.06472 min⁻¹, the half-life at 1 μM was found to be 10.7 min and the microsomal CLint at 1 μM is 129 µL/min/mg. Also, the Papp in data set [5] is 4.08 ± 0.5 ×10⁻⁶ cm/s. In data set [7] (human, hiPSC-derived cardiomyocytes (hiPSC-CM), probe astemizole (1 μM)), the inhibition at 24 h, 2 μM was 50%.

Usually inhibition stands for the drop in the measured response relative to a control, in per cent.
